{
  "source": "patent US20110027185A1",
  "about": "“Methods of Screening for Anti-Angiogenic Compounds” (priority 2007, published 2011)",
  "key": {"[1]": {"system": "endothelial cell proliferation and endothelial capillary formation", "details": "cited from earlier work"}, "HUVEC [2]": {"system": "HUVEC", "assay": "HUVEC cord formation assay on matrigel (NCI)", "type": "cell-based, human", "details": "24 h", "procedure": "Angiogenesis assays were provided by the NCI, details of the assay protocols are given below. In each assays TNP-470 and paclitaxel (Taxol®) were used as reference compounds. Matrigel (60 μL of 10 mg/mL; Collaborative Lab #35423) was placed in each well of an ice-cold 96-well plate. The plate was allowed to sit at room temperature for 15 minutes then it was incubated at 37° C. for 30 minutes to permit the matrigel to polymerize. In the mean time, HUVEC were prepared in EGM-2 (Clonetic #CC3162) at a concentration of 2×10^5 cells/mL. […] The cells (500 μL) and the drug at 2 times concentration (500 μL) were mixed and 200 μL of this suspension was placed in duplicate on the polymerized matrigel. After 24 h incubation, triplicate pictures were taken for each concentration using a Bioquant Image Analysis system. Drug effect (IC50) is assessed compared to untreated controls by measuring the length of cords formed and number of junctions."}, "HUVEC [3]": {"system": "HUVEC", "assay": "HUVEC cell migration (chemotaxis) assay, Boyden chamber (NCI)", "type": "cell-based, human", "details": "5 h", "procedure": "Angiogenesis assays were provided by the NCI, details of the assay protocols are given below. In each assays TNP-470 and paclitaxel (Taxol®) were used as reference compounds. Migration was assessed using the 48-well Boyden chamber and 8 μm pore size collagen-coated (10 μg/mL rat tail collagen; Collaborative Laboratories) polycarbonate filters (Osmonics, Inc.). The bottom chamber wells received 27-29 μL of DMEM medium alone (baseline) or medium containing chemo-attractant (bFGF, VEGF or Swiss 3T3 cell conditioned medium). The top chambers received 45 μL of HUVEC cell suspension (1×10^6 cells/mL) prepared in DMEM+1% BSA with or without test compound. After 5 h incubation at 37° C., the membrane was rinsed in PBS, fixed and stained in Diff-Quick solutions. The filter was placed on a glass slide with the migrated cells facing down and cells on top were removed using a Kimwipe. The testing was performed in 4-6 replicates and five fields were counted from each well. Negative, unstimulated, control values were subtracted from stimulated control and drug treated values and data was plotted as mean migrated cell±S.D. The IC50 was calculated from the plotted data."}, "HUVEC [4]": {"system": "HUVEC", "assay": "HUVEC growth inhibition assay (NCI)", "type": "cell-based, human", "details": "72 h, crystal violet", "procedure": "Angiogenesis assays were provided by the NCI, details of the assay protocols are given below. In each assays TNP-470 and paclitaxel (Taxol®) were used as reference compounds. HUVEC (1.5×10^3) were plated in a 96-well plate in 100 μL of EBM-2 (Clonetic #CC3162). […] On day 0, one plate was stained with 0.5% crystal violet in 20% methanol for 10 minutes, rinsed with water, and air-dried. The remaining plates were incubated for 72 h at 37° C. After 72 h, plates were stained with 0.5% crystal violet in 20% methanol, rinsed with water and air-dried. The stain was eluted with 1:1 solution of ethanol:0.1 M sodium citrate (including day 0 plate), and absorbance was measured at 540 nm with an ELISA reader (Dynatech Laboratories). Day 0 absorbance was subtracted from the 72 h plates and data was plotted as percentage of control proliferation (vehicle treated cells)."}, "[5]": {"system": "VEGFxxx and VEGFxxxb expression in RPE cells", "assay": "VEGF isoform ELISA of media of treated RPE cells", "type": "cell-based", "details": "0.5 μM or 5 μM, 72 hours", "procedure": "Media was sampled after 72 hours treatment, and assessed for total VEGF and VEGFxxxb expression (see Bates et al., 2002, Woolard et al., 2004 and Varey et al., 2008 for methods)."}, "[6]": {"system": "VEGFxxxb and total VEGF in RPE cells", "assay": "Dose dependent effect on VEGF in RPE cell lysate (ELISA, Western blot)", "type": "cell-based", "details": "24 hours", "procedure": "FIG. 7: Comparison of the effect of compound 5 on the VEGF levels by ELISA. RPE cells were treated with increasing concentrations of compound 5 for 24 hours and the VEGFxxxb and total VEGF concentrations measured by ELISA. **p<0.05, Dunnett's, **p<0.01, 95% confidence interval, alpha=0.05, N=3.\nFIG. 8: (A) Western Blot analysis of the cell lysate for expression of VEGF165b. Primary antibody: 56/1 mouse anti-h antibody (200 μg/ml, 1:250 dilution) and secondary antibody: Goat anti-mouse antibody (1:7000 dilution).\nRPE cell lysate was extracted after 24 hours incubation with increasing concentrations of compound 5. VEGFxxxb and VEGFxxx levels were then analysed by ELISA (see Bates et al., 2002, Woolard et al., 2004 and Varey et al., 2008 for methods). These levels were compared to total cell protein levels."}, "FBP21 in HEK cells": {"system": "FBP21 in HEK cells", "assay": "VEGFxxxb levels in HEK cells transfected with FBP21 construct", "type": "cell-based, human", "details": "pWV327 vs pOriGene-FBP21 control, 7 uM, 24 hours", "procedure": "(§1) pOriGene-FBP21 (FIG. 9A, SEQ ID No. 5) was purchased from Origene. This construct contains the cDNA for the human FBP21 gene. Due to the presence in this contruct of non-essential DNA which would have disrupted the expression of FBP21, a three part ligation was carried out to remove this DNA. This generated pWV327 (FIG. 9B, SEQ ID No. 6).\n(§2) Both RPE and HEK cells were transfected with either pOriGene-FBP21 (as a control, due to the lack of FBP21 expression) or pWV327 (for overexpression of FBP21), using standard techniques. These cell lines were then treated with compound 5 (7 uM) or untreated, and VEGFxxxb levels analysed after 24 hours. FIGS. 10A, B and C show the results of this analysis."}, "FBP21 in RPE cells": {"system": "FBP21 in RPE cells", "assay": "VEGFxxxb levels in RPE cells transfected with FBP21 construct", "type": "cell-based, human", "details": "pWV327 vs pOriGene-FBP21 control, 7 uM, 24 hours", "procedure": "as §1, §2"}, "[7]": {"system": "retinal neovascularisation", "assay": "Mouse Retinopathy of Prematurity (ROP) oxygen induced retinopathy model", "type": "in vivo", "details": "for neovascularisation compared with contralateral eye: day 17, p<0.01 paired t-test", "procedure": "Evidence that compound 5, a borrelidin analogue which affects splicing of VEGF through FBP21, affects angiogenesis was gained from an in vivo mouse model, […] (ROP), which mimics some of the processes in Age-related Macular Degeneration and other eye diseases where neovascularisation is associated with disease progression.\nCompound 5 was dosed at two concentrations, 0.5 μM and 5 μM, in a mouse Retinopathy of Prematurity (ROP) model (see Konopatskaya et al., 2006 for methods). Oxygen induced retinopathy was induced by placing the mice at 75% oxygen from day 7 to day 12 post birth and then removing them to normal room air. Mice were injected with either vehicle (0.02% DMSO in HBSS) or 0.5 μM or 5 μM compound 5 into one eye, and the other left uninjected (contralateral). At day 17 mice were killed, retinas removed and stained for endothelial cells with isolectin (FIG. 11)."}, "FBP21": {"biological_target": "T1, FBP21 (Homo sapiens, UniProt O75554)", "T1 construct": "encode 99 amino acids in frame with the phage coat protein of which a segment of 83 residues share 100% homology with FBP21; purchased Novagen; host or cells: T7 phage amplified in E. coli BLT5403", "T1 sequence (O75554 with tags, fused parts or gaps)": "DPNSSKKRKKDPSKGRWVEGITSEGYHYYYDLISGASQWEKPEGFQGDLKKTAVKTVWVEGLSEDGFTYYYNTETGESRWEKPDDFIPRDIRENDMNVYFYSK", "assay": "Phage display biopanning with biotinylated bait, Human Colon Tumour Library", "type": "binding", "details": "SDS and E. coli elution", "procedure": "Streptavidin wells were incubated with 1 μM biotinylated probe at 4° C. overnight to prepare the wells for biopanning. After incubation, unbound biotinylated probe was removed from the well by washing with phosphate buffered saline (PBS). Wells were then blocked with blocking solution (3% skimmed milk in PBS) for at least one hour at room temperature. Blocked wells were then briefly washed with PBS and were ready for biopanning use. […] In the first round of biopanning, 0.15 mL of amplified phage library was added to an empty streptavidin coated well and incubated at room temperature for at least 1 hour. This step was included to deselect any phage displaying streptavidin binding proteins. After incubation, the phage were removed from the well and mixed with 50 μL 4× blocking solution (12% skimmed milk in PBS) and incubated at room temperature for at least one hour. 0.125 mL of blocked phage library was added to each pre-prepared biotinylated well and incubated at room temperature for at least one hour. […] After incubation, unbound phage were removed from the well with wash solution. The wash solution was varied depending on the round of biopanning. For first round of biopanning PBS1 was used. For subsequent rounds the stringency of the wash was increased by using sequentially PBS2, PBS3 and PBS4 (see Table I). […]"}, "[8]": {"system": "mouse colon adenocarcinoma cells", "details": "subtoxic dose, colon 38 spleen liver model; cited from earlier work"}, "[9]": {"system": "Lewis lung adenocarcinoma", "details": "rats, intraperitoneal and per os, subtoxic doses; cited from earlier work"}},
  "data": [
    {"compound": "C[C@@H]1C[C@H](C)C[C@H](C)[C@@H](O)CC(=O)O[C@H]([C@@H]2CCC[C@H]2C(=O)OCCN2CCOCC2)C/C=C/C=C(/C#N)[C@H](O)[C@@H](C)C1", "note": "[borrelidin-morpholinoethyl ester]", "values": [
      {"measurement": "selectivity index, capillary formation inhibitory activity versus cell proliferation with respect to borrelidin", "setting": "[1]", "result": 60, "unit": "fold"}
    ]},
    {"compound": "CC(=O)O[C@H]1C(=O)[C@@]2(C)[C@H]([C@H](OC(=O)c3ccccc3)[C@]3(O)C[C@H](OC(=O)[C@H](O)[C@@H](NC(=O)c4ccccc4)c4ccccc4)C(C)=C1C3(C)C)[C@]1(OC(C)=O)CO[C@@H]1C[C@@H]2O", "note": "[Taxol, paclitaxel]", "values": [
      {"measurement": "IC50", "setting": "HUVEC [2]; Homo sapiens", "result": 50, "unit": "nM"},
      {"measurement": "IC50", "setting": "HUVEC [3]; Homo sapiens", "result": 100, "unit": "nM"},
      {"measurement": "IC50", "setting": "HUVEC [4]; Homo sapiens", "result": "1.65 ± 0.12", "unit": "nM"}
    ]},
    {"compound": "CC1CC(C)CC(C)C(O)C(C#N)=CC=CCC(C2CCC2C(=O)O)OC(=O)CC(O)C(C)C1", "note": "(stereo not shown) [compound 5, 17-des-(cyclopentane-2′-carboxylic acid)-17-(cyclobutane-2′-carboxylic acid) borrelidin]", "values": [
      {"measurement": "VEGFxxx expression (ELISA)", "setting": "[5]", "result": "significant downregulation"},
      {"measurement": "VEGFxxxb expression (ELISA)", "setting": "[5]", "result": "significant upregulation"},
      {"measurement": "increase in VEGFxxxb levels versus control", "setting": "[6]; 5 μM", "result": "statistically higher than those of the control"},
      {"measurement": "total VEGF levels (ELISA)", "setting": "[6]; increasing concentrations", "result": "dose dependent decrease"},
      {"measurement": "effect on VEGFxxxb levels after FBP21 transfection", "setting": "FBP21 in HEK cells", "result": "FBP21 transfection reduced the effect"},
      {"measurement": "effect on VEGFxxxb levels after FBP21 transfection", "setting": "FBP21 in RPE cells", "result": "FBP21 transfection reduced the effect"},
      {"measurement": "percentage neovascularisation compared to vehicle and the 5 μM dose", "setting": "[7]; 0.5 μM injected into one eye", "result": "significantly inhibited"},
      {"measurement": "neovascularisation compared with contralateral eye", "setting": "[7]; 0.5 μM injected into one eye", "result": "significant reduction"},
      {"measurement": "neovascularisation compared with contralateral eye", "setting": "[7]; 5 μM injected into one eye", "result": "significant reduction"}
    ]},
    {"compound": "CO[C@@H]1[C@H](OC(=O)NC(=O)CCl)CC[C@]2(CO2)[C@H]1[C@@]1(C)O[C@@H]1CC=C(C)C", "note": "[TNP470]", "values": [
      {"measurement": "IC50", "setting": "HUVEC [2]; Homo sapiens", "result": 1000, "unit": "nM"},
      {"measurement": "IC50", "setting": "HUVEC [3]; Homo sapiens", "result": 500, "unit": "nM"},
      {"measurement": "IC50", "setting": "HUVEC [4]; Homo sapiens", "result": "3.16 ± 0.82", "unit": "nM"}
    ]},
    {"compound": "pre-borrelidin", "values": [
      {"measurement": "IC50", "setting": "HUVEC [2]", "result": "> 30000", "unit": "nM"},
      {"measurement": "identification of FBP21 fragment by biopanning (binding)", "setting": "FBP21", "result": "never identified"},
      {"measurement": "IC50", "setting": "HUVEC [3]", "result": 461, "unit": "nM"},
      {"measurement": "IC50", "setting": "HUVEC [4]", "result": 2380, "unit": "nM"}
    ]},
    {"compound": "C[C@@H]1C[C@H](C)C[C@H](C)[C@@H](O)CC(=O)O[C@H]([C@@H]2CCC[C@H]2C(=O)NCCN2CCOCC2)C/C=C/C=C(/C#N)[C@H](O)[C@@H](C)C1", "note": "[borrelidin-morpholinoethyl amide]", "values": [
      {"measurement": "selectivity index, capillary formation inhibitory activity versus cell proliferation with respect to borrelidin", "setting": "[1]", "result": 6, "unit": "fold"}
    ]},
    {"compound": "CC1CC(C)CC(C)C(O)C(C#N)=CC=CCC(C2CCCC2C(=O)OCCc2ccccn2)OC(=O)CC(O)C(C)C1", "note": "(stereo not shown) [borrelidin-(2-pyridyl)-ethyl ester]", "values": [
      {"measurement": "selectivity index, capillary formation inhibitory activity versus cell proliferation with respect to borrelidin", "setting": "[1]", "result": 7.5, "unit": "fold"}
    ]},
    {"compound": "borrelidin-amide", "values": [
      {"measurement": "selectivity index, capillary formation inhibitory activity versus cell proliferation with respect to borrelidin", "setting": "[1]", "result": 37, "unit": "fold"}
    ]},
    {"compound": "CC1CC(C)CC(C)C(O)CC(=O)OC(C2CCCC2C(=O)NCc2cccnc2)C(C#N)=CC=CCC(O)C(C)C1", "note": "(stereo not shown) [borrelidin-(3-picolylamide)]", "values": [
      {"measurement": "metastasis-forming ability of mouse colon adenocarcinoma cells transplanted into mouse spleen", "setting": "[8]", "result": "considerably decreased"},
      {"measurement": "increase of micrometastases", "setting": "[9]", "result": "inhibit very considerably"}
    ]}
  ]
}
